Reference: article PMC2941766 (Molecular pharmaceutics, 2010)
Read-outs that look alike come from different tables or passages of the source.

Columns and labels:
Assay type in all cases: in vitro ADME
[1] = molecular target: T1, UGT1A1 (Homo sapiens, UniProt P22309); experiment: Glucuronidation by expressed human UGT1A1
T1 sequence (P22309 26-533): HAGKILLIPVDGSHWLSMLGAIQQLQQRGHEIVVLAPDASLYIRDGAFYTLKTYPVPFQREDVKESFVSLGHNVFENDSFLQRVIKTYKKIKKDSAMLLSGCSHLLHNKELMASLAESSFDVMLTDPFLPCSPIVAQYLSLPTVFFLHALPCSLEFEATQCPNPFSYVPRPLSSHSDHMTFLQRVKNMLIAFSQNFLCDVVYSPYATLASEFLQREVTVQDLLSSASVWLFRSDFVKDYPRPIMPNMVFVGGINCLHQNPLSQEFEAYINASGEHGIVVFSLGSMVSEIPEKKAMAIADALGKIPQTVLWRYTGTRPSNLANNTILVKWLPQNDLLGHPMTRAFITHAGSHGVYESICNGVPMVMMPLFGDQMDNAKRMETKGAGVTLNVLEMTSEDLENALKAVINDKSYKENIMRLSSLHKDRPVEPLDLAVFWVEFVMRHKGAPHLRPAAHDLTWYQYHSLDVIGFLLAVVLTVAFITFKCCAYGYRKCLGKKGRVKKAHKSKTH

[2] = molecular target: T2, UGT1A7 (Homo sapiens, UniProt Q9HAW7); experiment: Glucuronidation by expressed human UGT1A7
T2 sequence (Q9HAW7 26-530): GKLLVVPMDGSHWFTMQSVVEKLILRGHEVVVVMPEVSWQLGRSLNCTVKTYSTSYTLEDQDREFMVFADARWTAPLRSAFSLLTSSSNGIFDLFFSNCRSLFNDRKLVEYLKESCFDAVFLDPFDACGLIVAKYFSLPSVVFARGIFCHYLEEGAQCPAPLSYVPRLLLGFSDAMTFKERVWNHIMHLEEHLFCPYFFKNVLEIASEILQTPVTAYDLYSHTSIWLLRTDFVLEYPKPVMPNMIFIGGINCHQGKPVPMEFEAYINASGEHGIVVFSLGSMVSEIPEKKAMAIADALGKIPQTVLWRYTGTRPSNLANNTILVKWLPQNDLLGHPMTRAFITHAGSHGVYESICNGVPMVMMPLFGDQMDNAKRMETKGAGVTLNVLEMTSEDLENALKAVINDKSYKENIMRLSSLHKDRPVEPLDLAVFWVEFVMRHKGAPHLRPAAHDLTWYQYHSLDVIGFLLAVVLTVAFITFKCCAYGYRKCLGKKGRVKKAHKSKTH

[3] = molecular target: T3, UGT1A8 (Homo sapiens, UniProt Q9HAW9); experiment: Glucuronidation by expressed human UGT1A8
T3 sequence (Q9HAW9 26-530): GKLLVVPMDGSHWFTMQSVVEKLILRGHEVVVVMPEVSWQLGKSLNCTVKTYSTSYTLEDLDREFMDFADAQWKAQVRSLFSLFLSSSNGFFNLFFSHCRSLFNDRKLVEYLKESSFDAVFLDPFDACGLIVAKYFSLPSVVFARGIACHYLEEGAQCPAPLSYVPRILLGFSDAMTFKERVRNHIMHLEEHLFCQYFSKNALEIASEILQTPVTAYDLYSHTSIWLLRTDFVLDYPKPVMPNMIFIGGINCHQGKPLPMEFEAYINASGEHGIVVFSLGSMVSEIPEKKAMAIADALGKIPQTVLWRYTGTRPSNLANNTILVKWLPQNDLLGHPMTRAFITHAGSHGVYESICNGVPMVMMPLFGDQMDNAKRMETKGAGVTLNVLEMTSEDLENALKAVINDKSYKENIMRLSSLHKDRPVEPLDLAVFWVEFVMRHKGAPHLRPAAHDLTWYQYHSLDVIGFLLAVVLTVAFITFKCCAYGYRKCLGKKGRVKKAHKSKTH

[4] = molecular target: T4, UGT1A9 (Homo sapiens, UniProt O60656); experiment: Glucuronidation by expressed human UGT1A9
T4 sequence (O60656 26-530): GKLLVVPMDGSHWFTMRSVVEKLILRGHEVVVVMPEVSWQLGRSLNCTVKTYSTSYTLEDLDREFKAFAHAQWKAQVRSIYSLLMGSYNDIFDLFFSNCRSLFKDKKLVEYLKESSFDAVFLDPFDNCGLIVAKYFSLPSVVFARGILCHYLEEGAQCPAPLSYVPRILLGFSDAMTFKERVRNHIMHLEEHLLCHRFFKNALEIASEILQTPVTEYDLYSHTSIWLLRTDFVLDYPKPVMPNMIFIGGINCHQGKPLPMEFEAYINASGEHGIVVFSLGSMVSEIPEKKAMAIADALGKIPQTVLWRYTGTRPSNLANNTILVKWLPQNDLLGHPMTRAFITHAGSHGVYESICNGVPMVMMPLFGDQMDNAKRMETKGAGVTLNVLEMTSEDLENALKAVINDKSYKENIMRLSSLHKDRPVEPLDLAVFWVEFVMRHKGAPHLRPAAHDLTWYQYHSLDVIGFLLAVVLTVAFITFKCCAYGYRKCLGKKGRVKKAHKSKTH

[5] = molecular target: T5, UGT1A10 (Homo sapiens, UniProt Q9HAW8); experiment: Glucuronidation by expressed human UGT1A10
T5 sequence (Q9HAW8 26-530): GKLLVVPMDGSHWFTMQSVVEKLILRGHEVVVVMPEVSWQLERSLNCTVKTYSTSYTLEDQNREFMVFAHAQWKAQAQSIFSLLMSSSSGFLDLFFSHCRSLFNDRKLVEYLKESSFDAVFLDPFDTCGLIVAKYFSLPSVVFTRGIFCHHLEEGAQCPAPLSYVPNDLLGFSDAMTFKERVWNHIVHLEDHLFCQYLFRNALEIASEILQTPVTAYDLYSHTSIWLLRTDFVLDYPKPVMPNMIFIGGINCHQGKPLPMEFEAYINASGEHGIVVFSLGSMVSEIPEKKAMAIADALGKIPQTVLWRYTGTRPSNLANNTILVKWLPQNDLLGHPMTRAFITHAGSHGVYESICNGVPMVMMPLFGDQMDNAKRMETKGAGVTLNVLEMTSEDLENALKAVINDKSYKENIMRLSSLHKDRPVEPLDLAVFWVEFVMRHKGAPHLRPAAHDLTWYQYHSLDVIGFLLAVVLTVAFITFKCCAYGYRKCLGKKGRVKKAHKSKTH

[6] = Glucuronidation by pooled human liver microsomes
[7] = molecular target: T6, UGT2B7 (Homo sapiens, UniProt P16662); experiment: Glucuronidation by expressed human UGT2B7
T6 sequence (P16662 24-529): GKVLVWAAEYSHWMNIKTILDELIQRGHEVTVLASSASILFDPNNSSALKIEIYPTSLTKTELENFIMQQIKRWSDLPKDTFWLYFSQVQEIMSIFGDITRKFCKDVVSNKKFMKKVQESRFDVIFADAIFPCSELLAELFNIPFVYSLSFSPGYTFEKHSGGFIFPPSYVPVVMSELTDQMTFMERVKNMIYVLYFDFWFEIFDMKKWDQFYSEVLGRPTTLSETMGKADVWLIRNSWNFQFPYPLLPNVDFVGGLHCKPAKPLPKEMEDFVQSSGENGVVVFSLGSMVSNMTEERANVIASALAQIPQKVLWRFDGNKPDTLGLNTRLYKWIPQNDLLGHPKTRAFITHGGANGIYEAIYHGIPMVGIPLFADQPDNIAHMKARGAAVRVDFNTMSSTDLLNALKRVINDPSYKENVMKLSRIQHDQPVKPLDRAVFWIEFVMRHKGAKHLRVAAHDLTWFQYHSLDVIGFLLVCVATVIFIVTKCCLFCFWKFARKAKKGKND

[8] = Glucuronidation by pooled human intestinal microsomes
[9] = human liver microsomes, 2.5μM substrate

| SMILES | glucuronidation rate ([1]; UGT1A1, 2.5μM substrate, 37°C) | glucuronidation rate ([2]; UGT1A7, 2.5μM substrate, 37°C) | glucuronidation rate ([3]; UGT1A8, 2.5μM substrate, 37°C) | glucuronidation rate ([4]; UGT1A9, 2.5 μM substrate, 37°C) | glucuronidation rate ([5]; UGT1A10, 10 μM substrate, 37°C) | glucuronidation rate [6, 9] | also measured |
| --- | --- | --- | --- | --- | --- | --- | --- |
| O=c1cc(-c2ccccc2O)oc2ccccc12 [2′-HF, 2′-hydroxyflavone] | 1.28±0.12 nmol per min per mg of protein | 1.13±0.11 nmol per min per mg of protein | 1.18±0.26 nmol per min per mg of protein | 0.43±0.06 nmol per min per mg of protein | 0.09±0.01 nmol per min per mg of protein | 0.97±0.03 nmol per min per mg of protein | – |
| O=c1c(O)c(-c2ccccc2)oc2ccccc12 [3-HF, 3-hydroxyflavone] | 2.68 ± 0.47 nmol per min per mg of protein | 8.27±0.15 nmol per min per mg of protein | 2.19 ± 0.27 nmol per min per mg of protein | 3.03±0.04 nmol per min per mg of protein | 1.37±0.19 nmol per min per mg of protein | 5.04±0.48 nmol per min per mg of protein | glucuronidation rate ([1]; UGT1A1, 10μM substrate, 37°C): 3.80±0.21 nmol per min per mg of protein; glucuronidation rate ([1]; UGT1A1, 35μM substrate, 37°C): 3.85±0.12 nmol per min per mg of protein; glucuronidation rate ([7]; UGT2B7, 2.5μM substrate, 37°C): 1.39±0.14 nmol per min per mg of protein; glucuronidation rate ([7]; UGT2B7, 10μM substrate, 37°C): 5.35±0.91 nmol per min per mg of protein; glucuronidation rate ([7]; UGT2B7, 35μM substrate, 37°C): 2.19±0.07 nmol per min per mg of protein; substrate of UGT2B7 ([7]; UGT2B7, conclusion from fingerprints): substrates; glucuronidation rate ([8]; human intestinal microsomes, 2.5 μM substrate): 12.35±1.32 nmol per min per mg of protein; magnitude of the difference between fastest and slowest glucuronidation rate ([8]; human intestinal microsomes, 2.5 μM, 3-HF vs 5-HF): 25 folds |
| O=c1cc(-c2cccc(O)c2)oc2ccccc12 [3′-HF, 3′-hydroxyflavone] | 1.59 ±0.26 nmol per min per mg of protein | 1.44±0.20 nmol per min per mg of protein | 0.27 ±0.02 nmol per min per mg of protein | 0.48±0.13 nmol per min per mg of protein | 0.86±0.08 nmol per min per mg of protein | 3.14±0.01 nmol per min per mg of protein | – |
| O=c1cc(-c2ccc(O)cc2)oc2ccccc12 [4′-HF, 4′-hydroxyflavone] | 1.34 ±0.21 nmol per min per mg of protein | 0 nmol per min per mg of protein | 0.00±0.00 nmol per min per mg of protein | not detectable | 0.30±0.05 nmol per min per mg of protein | 0.80±0.05 nmol per min per mg of protein | glucuronidation (detectable metabolism) ([4]; UGT1A9, 35 μM substrate): no detectable metabolism |
| O=c1cc(-c2ccccc2)oc2cccc(O)c12 [5-HF, 5-hydroxyflavone] | – | – | – | – | – | – | glucuronidation rate ([1]; human, 2.5 μM, pH 7.4): 0.28±0.00 nmol per min per mg of protein; glucuronidation rate ([1]; human, 10 μM, pH 7.4): 0.28±0.01 nmol per min per mg of protein; glucuronidation rate ([1]; human, 35 μM, pH 7.4): 0.308±0.02 nmol per min per mg of protein; glucuronidation rate ([2]; human, 2.5 μM, pH 7.4): 0 nmol per min per mg of protein; glucuronidation rate ([3]; human, 2.5 μM, pH 7.4): 0.28±0.04 nmol per min per mg of protein; glucuronidation rate ([4]; human, 2.5 μM, pH 7.4): 0.29±0.01 nmol per min per mg of protein; glucuronidation rate ([5]; human, 10 μM, pH 7.4): 0.12±0.01 nmol per min per mg of protein; substrate of UGT2B7 [7]: substrates; glucuronidation rate ([7]; human, 2.5 μM, pH 7.4): 0.20±0.01 nmol per min per mg of protein; glucuronidation rate ([7]; human, 10 μM, pH 7.4): 0.40±0.02 nmol per min per mg of protein; glucuronidation rate ([7]; human, 35 μM, pH 7.4): 0.11±0.00 nmol per min per mg of protein; glucuronidation rate ([6]; human, 2.5 μM, pH 7.4): 0.00±0.00 nmol per min per mg of protein; glucuronidation rate ([8]; human, 2.5 μM, pH 7.4): 0.49±0.06 nmol per min per mg of protein |
| O=c1cc(-c2ccccc2)oc2ccc(O)cc12 [6-HF, 6-hydroxyflavone] | 1.50±0.18 nmol per min per mg of protein | 0 nmol per min per mg of protein | 0.87±0.12 nmol per min per mg of protein | 0.10±0.00 nmol per min per mg of protein | 0.62±0.07 nmol per min per mg of protein | 0.91±0.04 nmol per min per mg of protein | – |
| O=c1cc(-c2ccccc2)oc2cc(O)ccc12 [7-HF, 7-hydroxyflavone] | 1.73 ±0.21 nmol per min per mg of protein | 0 nmol per min per mg of protein | 0.23±0.03 nmol per min per mg of protein | 1.30±0.09 nmol per min per mg of protein | 0.17±0.03 nmol per min per mg of protein | 1.39±0.01 nmol per min per mg of protein | – |
